The values below come from patent EP0120304A2, “Substituted 4,10-dihydro-10-oxothieno benzoxepins and intermediates thereof, a process for their preparation and their use as medicaments” (HOECHST-ROUSSEL PHARMACEUTICALS INCORPORATED, priority 1983, dated 1984).

Read-outs that look alike come from different tables or passages of the source.

Experiment [1] has as its system rat paw edema. Kind of experiment: carrageenin induced rat paw edema anti-inflammatory assay. It counts as in vivo. Particulars: for ED50: Rattus norvegicus.
The subject of experiment [2] is 2-phenyl-1,4-benzoquinone-induced writhing. Kind of experiment: 2-phenyl-1,4-benzoquinone-induced writhing test (analgesia). It counts as in vivo, mice. The following applies: for ED50: Mus musculus, po. The text has this:
Compounds of the present invention are also useful as analgesic agents due to their ability to alleviate pain in mammals.
For orientation: An intraperitoneal irritant provokes the stretching counted in writhing tests.

For `O=C1c2cc(CCO)ccc2OCc2ccsc21` [(4,10-Dihydro-10-oxothieno[3,2-c][1]benzoxepin-8-yl) ethanol], the “ED50 (mg/kg; 120 min.)” value in experiment [1] amounted to 34.2 mg/kg. In experiment [2] (p.o., Phenylquinone Writhing), the “ED50 (mg/kg; p.o.)” value is 19.7 mg/kg.

As to `CC(=O)OCCc1ccc2c(c1)C(=O)c1sccc1CO2` [2-(4,10-Dihydro-10-oxothieno[3,2-c][1]benzoxepin-8-yl) ethyl acetate], in experiment [1], the “ED50 (mg/kg; 120 min.)” value was determined as 11.4 mg/kg.

On to `CC(CO)c1ccc2c(c1)C(=O)c1sccc1CO2` (racemic) [(±)-2-(4,10-Dihydro-10-oxothieno[3,2-c][1]benzoxepin-8-yl)propanol], for which the ED50 in experiment [1] (2 h, read-out: ED50 (mg/kg; 120 min.)) was found to be 4.3 mg/kg; in experiment [2] (Phenylquinone Writhing, read-out: ED50 (mg/kg; p.o.)), 4.3 mg/kg.

As to `COc1ccc2c(c1)c(CC(=O)O)c(C)n2C(=O)c1ccc(Cl)cc1` [indomethacin, reference compound], the ED50 in experiment [1] (po, read-out: anti-inflammatory ED50) is 6 mg/kg.

Turning to `CC(C)Cc1ccc(C(C)C(=O)O)cc1` (stereo not shown) [ibuprofen, reference compound], in experiment [2] (orally, in a similar test, read-out: analgesic ED50), the ED50 was found to be 10.4 mg/kg.
